In data set [1] the test system is antimorphine monoclonal antibody. Description: competition experiment with antimorphine monoclonal antibody and tritium-labeled morphine (relative immunoaffinity). The format is binding. The procedure:
The relative immunoaffinity of morphine, the amino morphine analog, and the amino-morphine derivative of mono-PABA-sulfonyl aluminum phthalocyanine disulfonate was determined in a competition experiment with antimorphine monoclonal antibody and tritium-labeled morphine.

A short description of data set [2]: solubility of aluminum phthalocyanines in water and solvents. Particulars: for solubility in polar, protic solvents such as methanol: effect of axial ligand L. An excerpt:
The following "R" substituents (R₁ and/or R₂) bound to the phthalocyanine macrocycle 1 can serve as suitable water-solubilizing moieties: sulfonic acid groups (-SO₃H), sulfonate groups (-SO₃⁻, X⁺), carboxylic acid groups (-CO₂H), carboxylate groups (-CO₂⁻, X⁺), phosphoric acid groups (-PO₄H₂), phosphate groups (-PO₄⁻⁻, 2X⁺), phosphonate groups (-PO₃H or -PO₃⁻, X⁺), hydroxy or phenoxy groups (-OH), amino groups (-NH₂), and ammonium and pyridinium groups (-NR₄⁺, X⁻).
To enhance water solubility, L should be -OZ or -NZ₂ wherein Z is selected from among hydrogen, alkyl, acyl, and silyl groups, the latter three preferably being charged.

The format of data set [3] is physicochemical. The procedure:
The phthalocyanines are thermally stable, and are often purified by sublimation at temperatures greater than 400°C. Chemically, the phthalocyanines are resistant to acidic or basic hydrolysis, oxidation, and reduction.

Data set [4] in a line: fluorescence and UV-VIS spectroscopy of phthalocyanine derivatives. The format is physicochemical. An excerpt: As a family of chromophores the metallophthalocyanines are characterized by a very narrow and strong absorption in the red envelope centered around 670 nm (Eo=230,000) and a broad and less intense absorption (Eo=60,000) at around 350 nm.
It is contemplated that other metal atoms (M) with +3 valences or higher may take on an axial ligand(s) in the phthalocyanine macrocycle, thereby conferring a similar resistance to aggregation in aqueous solution. For use as fluorescent species, the metal should be diamagnetic and have a lower atomic weight than that of […], so as to avoid a heavy-atom quenching effect; suitable metal atoms for the latter purpose include aluminum, silicon, phosphorus, gallium, germanium, and tin. […] Both processes give rise to radiationless deactivation of the excited state and serve to decrease the fluorescent quantum yield.
The ultimate sensitivity of a fluorogenic enzyme assay is determined by the spectral properties of the generated fluorophore.

For data set [5] the following is noted: λmax 678.5 nm, in chloronaphthalene; cited from earlier work.

The text below walks through data of patent EP0335902B1, “MONOMERIC PHTHALOCYANINE REAGENTS” (BRITISH TECHNOLOGY GROUP USA INC., priority 1986, dated 1988).

Where two headings read alike, the source gives them in different places.

“3-(4-aminobutyl)morphine [amino morphine]”: the “Relative Affinity” value in data set [1] (relative affinity of antimorphine monoclonal antibody for competitor versus tritium-labeled morphine) was determined as 1.
On to `[OH][Al]1[n]2c3c4ccccc4c2N=C2N=C(N=c4c5ccccc5c([n]41)=NC1=NC(=N3)c3ccccc31)c1ccccc12` [hydroxyaluminum phthalocyanine], for which, in data set [2], the “solubility in polar, protic solvents such as methanol” value was “soluble in polar, protic solvents such as methanol”.
As for `CN1CC[C@]23c4c5ccc(O)c4O[C@H]2[C@@H](O)C=C[C@H]3[C@H]1C5` [morphine, reference compound], the “Relative Affinity” value in data set [1] amounted to 1.
As to aluminum phthalocyanine trisulfonate, in data set [3], the photochemical stability entry is on record as “photochemically inert”. Moreover, the solubility in water entry in data set [2] is given as “high water solubility”. Moreover, in data set [4], the Stokes shift is 335 nm, the fluorescence emission lifetime came to 5 ns and the polarization coefficient turned out to be 0.005. In data set [4] (aggregated), the “quantum yield when aggregated” value is recorded as less than 0.02 and the “quantum yield when aggregated, of its original value” is “less than 4%”. Further, in data set [4] (excitation at 350 nm), the emission wavelength amounted to 680 nm.
On to `[OH][Al]1[n]2c3c4ccccc4c2N=C2N=C(N=c4c5ccccc5c([n]41)=NC1=NC(=N3)c3ccccc31)c1ccccc12` [aluminum phthalocyanine, reference compound], for which, in data set [2] (water), the solubility in water entry is “poorly soluble in water”. Further, the Stokes shift in data set [4] came out at 330 nm.
“copper(II)phthalocyanine trisulfonate [reference compound]”: in data set [4] (comparative example), the “fluorescence quantum yield relative to aluminum(III)phthalocyanine trisulfonate” value is “more than 200 times less”.
For `[Cl][Al]1[n]2c3c4ccccc4c2/N=C2N=C(/N=c4/c5ccccc5/c([n]41)=N/C1=NC(=N\3)/c3ccccc31)c1ccccc1\2` [chloraluminum phthalocyanine], in data set [2], the “solubility in polar, protic solvents such as methanol” value is given as “but not chloraluminum phthalocyanine is soluble in polar, protic solvents”.
Regarding `c1ccc2c(c1)C1=NC2=Nc2c3ccccc3c3[n]2[Cu][n]2c(c4ccccc4c2=NC2=NC(=N3)c3ccccc32)=N1` [compound 9, Copper phthalocyanine], in data set [5], the “molar absorptivity ε” value is recorded as 218,500.
